Measurements taken from ChEMBL document CHEMBL4387741, “Optimization of novel reversible Bruton's tyrosine kinase inhibitors identified using Tethering-fragment-based screens” (Bioorg Med Chem, 2019).

Key:
[1] = target: Activin receptor type-1-like (Homo sapiens) (UniProt P37023); assay: Inhibition of wild-type human ACVRL1 (L164 to Q503 residues) expressed in bacterial expression system at 1 uM by Kinomescan method relative to control
[2] = target: Mitogen-activated protein kinase kinase kinase 6 (Homo sapiens) (UniProt O95382); assay: Inhibition of wild-type human partial length ASK2 (M278 to R972 residues) expressed in mammalian expression system at 1 uM by Kinomescan method relative to control
[3] = target: Tyrosine-protein kinase receptor UFO (Homo sapiens) (UniProt P30530); assay: Inhibition of wild-type human partial length AXL (R497 to Y821 residues) expressed in bacterial expression system at 1 uM by Kinomescan method relative to control
[4] = target: Calcium/calmodulin-dependent protein kinase kinase 1 (Homo sapiens) (UniProt Q8N5S9); assay: Inhibition of wild-type human partial length CAMKK1 (R65 to E414 residues) expressed in bacterial expression system at 1 uM by Kinomescan method relative to control
[5] = target: Myotonin-protein kinase (Homo sapiens) (UniProt Q09013); assay: Inhibition of wild-type human partial length DMPK (V47 to V415 residues) expressed in bacterial expression system at 1 uM by Kinomescan method relative to control
[6] = target: Dual specificity tyrosine-phosphorylation-regulated kinase 1B (Homo sapiens) (UniProt Q9Y463); assay: Inhibition of wild-type human full length DYRK1B (M1 to S629 residues) expressed in bacterial expression system at 1 uM by Kinomescan method relative to control
[7] = target: Insulin-like growth factor 1 receptor (Homo sapiens) (UniProt P08069); assay: Inhibition of wild-type human partial length IGF1R (L972 to D1294 residues) expressed in bacterial expression system at 1 uM by Kinomescan method relative to control
[8] = target: Interleukin-1 receptor-associated kinase 1 (Homo sapiens) (UniProt P51617); assay: Inhibition of wild-type human partial length IRAK1 (R194 to S712 residues) expressed in mammalian expression system at 1 uM by Kinomescan method relative to control
[9] = target: Mitogen-activated protein kinase 11 (Homo sapiens) (UniProt Q15759); assay: Inhibition of wild-type human full length p38-beta (M1 to Q364 residues) expressed in bacterial expression system at 1 uM by Kinomescan method relative to control
[10] = target: Phosphorylase b kinase gamma catalytic chain, liver/testis isoform (Homo sapiens) (UniProt P15735); assay: Inhibition of wild-type human partial length PHKG2 (M1 to W300 residues) expressed in bacterial expression system at 1 uM by Kinomescan method relative to control
[11] = target: Protein kinase C delta type (Homo sapiens) (UniProt Q05655); assay: Inhibition of wild-type human partial length PRKCD (Q328 to D676 residues) expressed in bacterial expression system at 1 uM by Kinomescan method relative to control
[12] = target: cAMP-dependent protein kinase catalytic subunit PRKX (Homo sapiens) (UniProt P51817); assay: Inhibition of wild-type human partial length PRKX (M1 to F358 residues) expressed in bacterial expression system at 1 uM by Kinomescan method relative to control
[13] = target: Ribosomal protein S6 kinase alpha-6 (Homo sapiens) (UniProt Q9UK32); assay: Inhibition of wild-type human partial length C-terminal RSK4 kinase domain 2 (I401 to Y711 residues) expressed in bacterial expression system at 1 uM by Kinomescan method relative to control
[14] = target: Tyrosine-protein kinase receptor TYRO3 (Homo sapiens) (UniProt Q06418); assay: Inhibition of wild-type human partial length TYRO3 (S497 to T814 residues) expressed in bacterial expression system at 1 uM by Kinomescan method relative to control
[15] = target: Serine/threonine-protein kinase VRK2 (Homo sapiens) (UniProt Q86Y07); assay: Inhibition of wild-type human partial length VRK2 (M1 to T336 residues) expressed in mammalian expression system at 1 uM by Kinomescan method relative to control
[16] = Protein binding in rat plasma assessed as unbound fraction at 2 uM by rapid equilibrium dialysis method; type: ADME, cell-free
[17] = test system: Tyrosine-protein kinase ABL1 (Homo sapiens), P00519 [F317I]; assay: Inhibition of human phosphorylated ABL1 F317I mutant (S229 to K512 residues) expressed in mammalian expression system at 10 uM by Kinomescan method relative to control
[18] = test system: Tyrosine-protein kinase ABL1 (Homo sapiens), P00519 [Q252H]; assay: Inhibition of human phosphorylated ABL1 Q252H mutant expressed in mammalian expression system at 10 uM by Kinomescan method relative to control
[19] = test system: Tyrosine-protein kinase ABL1 (Homo sapiens), P00519 [Y253F]; assay: Inhibition of human phosphorylated ABL1 Y253F mutant (S229 to K512 residues) expressed in mammalian expression system at 10 uM by Kinomescan method relative to control
[20] = test system: Receptor-type tyrosine-protein kinase FLT3 (Homo sapiens), P36888 [R834Q]; assay: Inhibition of human partial length FLT3 R834Q mutant (V592 to Y969 residues) expressed in mammalian expression system at 10 uM by Kinomescan method relative to control
[21] = test system: eIF-2-alpha kinase GCN2 (Homo sapiens), Q9P2K8 [S808G]; assay: Inhibition of wild-type human partial length GCN2 S808G mutant kinase domain 2 (R585 to T1018 residues) expressed in bacterial expression system at 10 uM by Kinomescan method relative to control
[22] = target: Mitogen-activated protein kinase kinase kinase 9 (Homo sapiens) (UniProt P80192); assay: Inhibition of wild-type human partial length MLK1 (V88 to W426 residues) expressed in bacterial expression system at 10 uM by Kinomescan method relative to control
[23] = test system: Phosphatidylinositol 4,5-bisphosphate 3-kinase catalytic subunit alpha isoform (Homo sapiens), P42336 [E545K]; assay: Inhibition of human partial length PIK3CA E545K mutant (R108 to N1068 residues) expressed in mammalian expression system at 10 uM by Kinomescan method relative to control
[24] = target: 1-phosphatidylinositol 3-phosphate 5-kinase (Homo sapiens) (UniProt Q9Y2I7); assay: Inhibition of wild-type human partial length PIKFYVE (F1512 to C2098 residues) expressed in mammalian expression system at 10 uM by Kinomescan method relative to control
[25] = target: Phosphatidylinositol 5-phosphate 4-kinase type-2 beta (Homo sapiens) (UniProt P78356); assay: Inhibition of wild-type human full length PIP5K2B (M1 to T416 residues) expressed in bacterial expression system at 10 uM by Kinomescan method relative to control
[26] = target: cGMP-dependent protein kinase 2 (Homo sapiens) (UniProt Q13237); assay: Inhibition of wild-type human partial length PRKG2 (S422 to F762 residues) expressed in mammalian expression system at 10 uM by Kinomescan method relative to control
[27] = target: Receptor-interacting serine/threonine-protein kinase 1 (Homo sapiens) (UniProt Q13546); assay: Inhibition of wild-type human partial length RIPK1 (M1 to K305 residues) expressed in bacterial expression system at 10 uM by Kinomescan method relative to control

Serine/threonine-protein kinase VRK2 (Homo sapiens), sequence (Q86Y07 whole entry, the tested form may be a part): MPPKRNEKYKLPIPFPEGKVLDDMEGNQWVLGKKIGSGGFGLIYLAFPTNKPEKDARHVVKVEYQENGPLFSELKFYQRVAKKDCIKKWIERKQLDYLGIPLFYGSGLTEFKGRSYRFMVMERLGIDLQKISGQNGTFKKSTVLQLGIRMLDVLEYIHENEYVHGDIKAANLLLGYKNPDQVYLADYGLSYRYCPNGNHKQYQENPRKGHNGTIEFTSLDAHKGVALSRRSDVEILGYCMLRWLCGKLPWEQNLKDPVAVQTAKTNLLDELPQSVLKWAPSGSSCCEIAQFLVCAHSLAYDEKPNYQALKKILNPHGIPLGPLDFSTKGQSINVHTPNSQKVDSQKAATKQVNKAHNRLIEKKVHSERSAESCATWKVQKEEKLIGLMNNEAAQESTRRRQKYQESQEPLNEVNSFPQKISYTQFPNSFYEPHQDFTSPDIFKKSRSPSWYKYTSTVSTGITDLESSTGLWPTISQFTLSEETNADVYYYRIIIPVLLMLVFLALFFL
cGMP-dependent protein kinase 2 (Homo sapiens), sequence (Q13237 whole entry, the tested form may be a part): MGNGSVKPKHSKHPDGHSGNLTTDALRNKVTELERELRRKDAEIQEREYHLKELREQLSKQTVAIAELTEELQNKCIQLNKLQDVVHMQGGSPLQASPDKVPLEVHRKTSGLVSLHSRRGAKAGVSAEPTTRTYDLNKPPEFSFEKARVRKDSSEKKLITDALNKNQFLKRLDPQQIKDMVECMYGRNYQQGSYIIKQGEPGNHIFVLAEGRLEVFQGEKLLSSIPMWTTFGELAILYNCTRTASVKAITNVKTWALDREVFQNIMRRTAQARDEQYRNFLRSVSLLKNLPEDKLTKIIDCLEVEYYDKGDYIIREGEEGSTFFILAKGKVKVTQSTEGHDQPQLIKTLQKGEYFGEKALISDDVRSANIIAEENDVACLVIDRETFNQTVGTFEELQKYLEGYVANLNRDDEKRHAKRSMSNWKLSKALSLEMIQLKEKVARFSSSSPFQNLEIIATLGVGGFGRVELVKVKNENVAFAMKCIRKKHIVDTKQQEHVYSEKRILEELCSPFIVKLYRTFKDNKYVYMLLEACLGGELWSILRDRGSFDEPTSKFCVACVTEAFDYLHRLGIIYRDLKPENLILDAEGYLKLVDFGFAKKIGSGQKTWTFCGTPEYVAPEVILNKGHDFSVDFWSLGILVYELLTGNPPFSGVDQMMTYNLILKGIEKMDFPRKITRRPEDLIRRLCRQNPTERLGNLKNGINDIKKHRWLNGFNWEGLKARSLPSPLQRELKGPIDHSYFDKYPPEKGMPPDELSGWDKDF
Calcium/calmodulin-dependent protein kinase kinase 1 (Homo sapiens), sequence (Q8N5S9 whole entry, looked up, the tested form may be a part): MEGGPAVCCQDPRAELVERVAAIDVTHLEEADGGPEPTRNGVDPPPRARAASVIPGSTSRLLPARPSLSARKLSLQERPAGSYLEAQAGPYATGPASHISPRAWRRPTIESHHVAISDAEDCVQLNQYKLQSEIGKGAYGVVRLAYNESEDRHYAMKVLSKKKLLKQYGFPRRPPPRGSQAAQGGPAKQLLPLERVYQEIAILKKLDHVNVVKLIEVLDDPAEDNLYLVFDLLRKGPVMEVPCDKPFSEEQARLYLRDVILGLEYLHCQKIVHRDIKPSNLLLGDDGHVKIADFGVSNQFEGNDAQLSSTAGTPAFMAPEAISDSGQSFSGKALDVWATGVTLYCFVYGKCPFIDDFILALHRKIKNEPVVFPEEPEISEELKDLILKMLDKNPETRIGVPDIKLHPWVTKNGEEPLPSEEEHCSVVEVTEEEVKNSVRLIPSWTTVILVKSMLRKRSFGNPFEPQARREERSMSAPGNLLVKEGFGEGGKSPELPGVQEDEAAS
Mitogen-activated protein kinase kinase kinase 6 (Homo sapiens), sequence (O95382 whole entry, the tested form may be a part): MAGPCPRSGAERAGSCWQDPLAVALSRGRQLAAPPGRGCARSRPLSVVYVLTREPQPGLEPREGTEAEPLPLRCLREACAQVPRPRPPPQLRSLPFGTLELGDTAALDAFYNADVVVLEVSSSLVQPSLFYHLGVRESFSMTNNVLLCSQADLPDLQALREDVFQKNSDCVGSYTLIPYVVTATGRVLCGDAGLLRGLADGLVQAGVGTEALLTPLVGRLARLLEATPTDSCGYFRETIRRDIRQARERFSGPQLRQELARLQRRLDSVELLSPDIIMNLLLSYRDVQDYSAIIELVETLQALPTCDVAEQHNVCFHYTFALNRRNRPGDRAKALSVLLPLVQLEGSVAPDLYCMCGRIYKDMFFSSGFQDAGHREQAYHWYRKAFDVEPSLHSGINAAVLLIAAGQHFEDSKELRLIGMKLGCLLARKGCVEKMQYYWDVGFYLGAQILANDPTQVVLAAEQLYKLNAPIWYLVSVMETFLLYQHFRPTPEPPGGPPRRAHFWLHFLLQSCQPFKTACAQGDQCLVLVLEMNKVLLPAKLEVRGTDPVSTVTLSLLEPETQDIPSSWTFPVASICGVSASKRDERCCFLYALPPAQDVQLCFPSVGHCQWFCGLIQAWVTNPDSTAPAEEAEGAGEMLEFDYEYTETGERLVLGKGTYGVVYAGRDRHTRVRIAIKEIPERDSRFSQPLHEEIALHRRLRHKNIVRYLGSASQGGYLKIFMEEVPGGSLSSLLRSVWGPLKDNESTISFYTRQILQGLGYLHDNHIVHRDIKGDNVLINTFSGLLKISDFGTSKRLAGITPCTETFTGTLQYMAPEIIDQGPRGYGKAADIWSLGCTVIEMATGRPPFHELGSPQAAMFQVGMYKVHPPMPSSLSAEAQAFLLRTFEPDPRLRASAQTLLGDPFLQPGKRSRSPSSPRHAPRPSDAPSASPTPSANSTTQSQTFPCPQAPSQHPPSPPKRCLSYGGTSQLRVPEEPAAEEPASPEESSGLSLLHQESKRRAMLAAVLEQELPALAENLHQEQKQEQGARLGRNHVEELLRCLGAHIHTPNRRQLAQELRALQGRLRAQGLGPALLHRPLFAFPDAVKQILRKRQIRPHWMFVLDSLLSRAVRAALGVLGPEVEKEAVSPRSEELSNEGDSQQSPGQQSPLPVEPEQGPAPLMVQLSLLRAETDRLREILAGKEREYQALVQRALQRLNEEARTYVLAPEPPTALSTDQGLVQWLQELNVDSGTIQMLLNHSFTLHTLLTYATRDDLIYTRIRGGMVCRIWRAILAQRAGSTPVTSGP
Mitogen-activated protein kinase kinase kinase 9 (Homo sapiens), sequence (P80192 whole entry, looked up, the tested form may be a part, canonical isoform): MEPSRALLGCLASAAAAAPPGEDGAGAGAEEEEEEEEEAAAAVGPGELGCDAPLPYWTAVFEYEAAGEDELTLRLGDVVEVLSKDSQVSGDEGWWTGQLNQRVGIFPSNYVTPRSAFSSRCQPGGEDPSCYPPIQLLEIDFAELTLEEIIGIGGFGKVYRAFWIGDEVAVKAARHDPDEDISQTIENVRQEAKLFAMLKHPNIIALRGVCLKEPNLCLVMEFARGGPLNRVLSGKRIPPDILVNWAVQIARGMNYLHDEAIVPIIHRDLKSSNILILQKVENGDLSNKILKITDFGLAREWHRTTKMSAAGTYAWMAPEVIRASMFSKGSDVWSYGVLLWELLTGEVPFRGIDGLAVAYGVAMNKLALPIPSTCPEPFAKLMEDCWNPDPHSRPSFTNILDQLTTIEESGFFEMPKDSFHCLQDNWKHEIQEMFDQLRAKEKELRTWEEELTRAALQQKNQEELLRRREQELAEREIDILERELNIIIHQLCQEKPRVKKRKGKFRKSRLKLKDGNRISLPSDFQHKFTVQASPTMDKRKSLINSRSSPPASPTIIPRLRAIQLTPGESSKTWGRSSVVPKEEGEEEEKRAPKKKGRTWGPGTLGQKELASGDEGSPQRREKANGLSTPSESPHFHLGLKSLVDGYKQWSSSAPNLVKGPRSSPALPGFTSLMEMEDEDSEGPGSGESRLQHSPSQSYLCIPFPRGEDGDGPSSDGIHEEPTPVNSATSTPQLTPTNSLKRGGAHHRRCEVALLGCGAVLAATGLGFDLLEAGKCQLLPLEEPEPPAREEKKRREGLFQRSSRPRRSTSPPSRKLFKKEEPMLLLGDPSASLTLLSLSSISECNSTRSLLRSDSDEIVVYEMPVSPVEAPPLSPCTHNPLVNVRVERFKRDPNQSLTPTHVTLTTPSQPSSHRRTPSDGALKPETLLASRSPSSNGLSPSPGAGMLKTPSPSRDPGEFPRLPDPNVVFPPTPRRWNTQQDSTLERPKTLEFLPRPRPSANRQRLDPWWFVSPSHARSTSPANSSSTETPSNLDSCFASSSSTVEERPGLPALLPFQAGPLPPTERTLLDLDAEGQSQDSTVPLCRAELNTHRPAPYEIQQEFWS
Phosphatidylinositol 5-phosphate 4-kinase type-2 beta (Homo sapiens), sequence (P78356 whole entry, the tested form may be a part): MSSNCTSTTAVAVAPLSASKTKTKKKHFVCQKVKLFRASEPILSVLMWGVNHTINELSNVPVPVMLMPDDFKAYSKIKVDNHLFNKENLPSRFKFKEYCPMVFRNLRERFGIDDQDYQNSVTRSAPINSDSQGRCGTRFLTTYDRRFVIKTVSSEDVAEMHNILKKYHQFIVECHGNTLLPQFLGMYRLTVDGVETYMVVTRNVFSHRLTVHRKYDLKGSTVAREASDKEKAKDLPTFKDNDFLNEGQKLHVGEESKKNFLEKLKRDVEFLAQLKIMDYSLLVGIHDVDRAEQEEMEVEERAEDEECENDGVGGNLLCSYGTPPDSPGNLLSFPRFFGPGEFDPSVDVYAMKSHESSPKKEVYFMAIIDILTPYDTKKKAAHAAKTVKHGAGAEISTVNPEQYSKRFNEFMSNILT
Phosphorylase b kinase gamma catalytic chain, liver/testis isoform (Homo sapiens), sequence (P15735 whole entry, the tested form may be a part, canonical isoform): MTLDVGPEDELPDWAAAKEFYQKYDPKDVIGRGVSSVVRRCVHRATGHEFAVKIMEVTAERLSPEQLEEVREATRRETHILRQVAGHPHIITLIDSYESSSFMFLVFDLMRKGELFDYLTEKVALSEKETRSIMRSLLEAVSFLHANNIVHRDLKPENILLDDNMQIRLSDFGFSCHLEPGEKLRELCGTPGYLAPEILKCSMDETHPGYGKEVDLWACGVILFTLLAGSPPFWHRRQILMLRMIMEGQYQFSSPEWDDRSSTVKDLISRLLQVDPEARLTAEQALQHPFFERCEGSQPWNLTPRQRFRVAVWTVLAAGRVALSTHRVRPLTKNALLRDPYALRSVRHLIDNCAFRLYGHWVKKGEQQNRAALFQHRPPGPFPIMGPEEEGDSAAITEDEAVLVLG

Work on `O=C(Nc1cccc([C@@H]2CN(c3ncnc4[nH]ccc34)CCN2CCO)c1)Nc1c(F)cccc1N1CCCC1` yielded an inhibition [1] of 100%, an inhibition [2] of 81% and an inhibition [3] of 23%. The inhibition [4] was 100%, the inhibition [5] was 100% and the inhibition [6] was 95%. It also gave an inhibition [7] of 100%, an inhibition [8] of 92% and an inhibition [9] of 92%. It also gave an inhibition [10] of 100%, an inhibition [11] of 85% and an inhibition [12] of 95%. It also gave an inhibition [13] of 88%, an inhibition [14] of 100% and an inhibition [15] of 100%. For the same compound, the Fu [16] was 0.13%.
For `O=C(Nc1cccc([C@H]2CCCN(c3ncnc4[nH]ccc34)C2)c1)Nc1ccccc1N1CCCC1`, the inhibition [17] was 94%, the inhibition [18] was 83% and the inhibition [19] was 74%. It also gave an inhibition [20] of 44%, an inhibition [21] of 46% and an inhibition [22] of 59%. The inhibition [23] was 64%, the inhibition [24] was 77% and the inhibition [25] was 4.7%. For the same compound, the inhibition [26] was 54% and the inhibition [27] was 100%.
